Columns and labels:
GLI1 = test: Quantitative RT-PCR of Hedgehog pathway mediators in SKOV3 cells; format: cell-based
Experimental: (§1) Total RNA was isolated using Trizol reagent from ovarian cancer cell line monolayer and spheroids-forming cells according to the manufacturer instructions (Invitrogen Corporation, Carlsbad, Calif.) and cDNA was prepared using High Capacity Reverse Transcriptase Kit (Applied Biosystem, Foster City, Calif.). Real-time PCR was performed using a Bio-Rad iQ5 Real-time Detection system (Bio-Rad). All reactions were done as three independent replicates. All assays were done using the TaqMan Gene Expression Assays from Applied Biosystems. Primers and probes for the TaqMan system were selected from the Applied Biosystems website. [Gli1 assay ID: Hs01110766 ml, Patched (PTCH) assay ID: Hs00970980 ml. The relative expression mRNA levels of GLI1, and PTCH were normalized to internal control glyceraldehyde-3-phosphate dehydrogenase (assay ID: Hs99999905 ml) levels (2^−δδCT).
(§2) Quantitative realtime PCR (RT-PCR) was performed as described above. To assess the effects of inhibition of SMO by BMS-833923, levels of GLI1 and PTCH were measured by quantitative RT-PCR. SKOV3 ovarian cancer cell line was treated with 2.5 μM BMS-833923 for 24 hr and 48 hr and compared to untreated controls.

PTCH = test: as above; format: cell-based
Experimental: as §1, §2

OV90 OCSC (CD44+/CD24-) = test: Matrigel invasion assay of CD44+/CD24- ovarian cancer stem cells; format: cell-based; settings: 2.5 μM, 24 hours
Experimental: (§3) Fluorescence-activated cell sorting (FACS) was performed in order to sort into 2 distinct phenotypes: 1) ovarian cancer stem cell phenotype (OCSC=CD44+/CD24−) and 2) non-ovarian cancer stem cells (non-OCSC=all other phenotypes). Each ovarian cancer phenotype was evaluated for invasion properties using the Matrigel invasion assay for the SKOV3 and OV90 cell lines. Matrigel™-coated chamber (BD Pharmingen) were rehydrated for 2 hours in humidified tissue culture incubator at 37° C., 5% CO2. After rehydration, the medium was carefully removed without disturbing the layer of Matrigel Matrix on the membrane. The cell suspension was prepared in serum-free medium containing 10^5 cells/mL. The lower chambers of the 24-well plate were filled with 750 μL serum-free medium containing 10 μg/mL fibronectin as a chemotactic factor. […] The cells were then fixed, stained and counted. Numbers of invaded cells at least 10 consecutive fields were enumerated and their average was calculated. Data are expressed as the number of migrating cells per field. Three groups were evaluated: 1) non-OCSC; 2) OCSC; 3) OCSC plus BMS833923 treatment.
(§4) One aggressive property of cancer includes the ability to invade tissues locally. Therefore, the ability of Ovarian Cancer Stem Cells (OCSC) with CD44+/CD24− phenotype to invade via Matrigel invasion assay was evaluated. […]

SKOV3 OCSC (CD44+/CD24-) = test: as above; format: cell-based; settings: 2.5 μM, 24 hours
Experimental: as §3, §4

A2780 xenografts = test: Xenograft tumor growth, carboplatin-sensitive model; format: in vivo; settings: SCID mice; BMS-833923 100 mg/kg i.p. daily, Carboplatin 40 mg/kg i.p. twice a week, two weeks
Experimental: (§5) Female SCID mice 6-8 weeks old were inoculated i.p. with 5×10^6 A2780 or A2780/CP70 cells suspended in 200 μL PBS (PH 7.4). Seven days later when the tumor reached a size of greater than 150 mm^3, the mice were randomly divided into 4 groups (8 mice per group) as follows: (1) PBS-treated control; (2) BMS-833923 alone (100 mg/kg, i.p. daily, two weeks); (3) Carboplatin alone (40 mg/kg, i.p. twice a week, two weeks); (4) Combination of BMS-833923 and Carboplatin treatment. Mice were weighed and tumor diameters were measured with calipers every 2-3 days for 20 days. The tumor volumes (mm^3) were calculated as (W^2×L)/2, where W and L are the minor and major diameters (in millimeters), respectively.
(§6) Xenograft experiments were performed as described above. Carboplatin was dosed days 7, 11, 14, 18; BMS-833923 was dosed days 8 through 20. The experiment was terminated due to excessive tumor size in vehicle and BMS-833923 treatment groups.

CP2780 xenografts = test: Xenograft tumor growth, carboplatin-resistant model; format: in vivo; settings: SCID mice; BMS-833923 100 mg/kg i.p. daily, Carboplatin 40 mg/kg i.p. twice a week, two weeks
Experimental: as §5, §6
The CP2780 was derived from the A2780 Ovarian tumor xenograft model by selection for resistance to cisplatin. The CP2780 growth appeared to be more robust than observed for parental A2780 model (FIG. 12B). Average tumor volume doubling time for CP2780 was estimated at 2 days. Doubling time for parental A2780 tumor model was estimated at 3 days. […]

CNCc1ccc(C)c(NC(=O)c2ccc(Nc3nc(-c4ccccc4)c4ccccc4n3)cc2)c1 [BMS-833923, N-{2-methyl-5-[(methylamino)methyl]phenyl}-4-[(4-phenylquinazolin-2-yl)amino]benzamide]
decrease in GLI1 activity (RTQ) (GLI1; SKOV3, 2.5 μM, 24 hr and 48 hr, vs untreated): 10 fold | downregulation of GLI1 protein compared to untreated controls (GLI1; as stated in the description): 5 fold | PTCH activity compared to untreated controls (PTCH; SKOV3, 2.5 μM, 24 hr and 48 hr): down-regulation in activity | downregulation of PTCH protein compared to untreated controls (PTCH; as stated in the description): 3 fold | invasive properties of OCSC (number of cells invaded) (OV90 OCSC (CD44+/CD24-)): lower than non-OCSCs | invasive properties of OCSC (number of cells invaded) (SKOV3 OCSC (CD44+/CD24-)): lower than non-OCSCs | effect on growth of A2780 xenografts in vivo (A2780 xenografts): little effect | effect on growth of CP2780 (A2780/CP70) xenografts in vivo (CP2780 xenografts): little effect

Source: US20140309184A1, “METHODS AND COMPOSITIONS FOR THE TREATMENT OF OVARIAN CANCER” (UNIVERSITY OF SOUTH ALABAMA, priority 2011, published 2014)
